Measured values reported in patent publication US20250215014A1, “KINASE INHIBITORS, PREPARATION METHODS AND USES THEREOF” (InventisBio Co., Ltd., priority 2022, published 2025).

Tests used:
DGKz = DGKz (Homo sapiens (Human), UniProt Q13574); experiment: DGK ADP-Glo Kinase Assay (DGKz); format: biochemical; details: 5 nM DGKz, 15 uM ATP
Method: (§1) Luminescence was recorded using an Tecan SPARK microplate reader.

DGKa = DGKa (Homo sapiens (Human), UniProt P23743); experiment: DGK ADP-Glo Kinase Assay (DGKa); format: biochemical; details: 10 nM DGKa, 15 uM ATP
Sequence of DGKa (P23743 whole entry): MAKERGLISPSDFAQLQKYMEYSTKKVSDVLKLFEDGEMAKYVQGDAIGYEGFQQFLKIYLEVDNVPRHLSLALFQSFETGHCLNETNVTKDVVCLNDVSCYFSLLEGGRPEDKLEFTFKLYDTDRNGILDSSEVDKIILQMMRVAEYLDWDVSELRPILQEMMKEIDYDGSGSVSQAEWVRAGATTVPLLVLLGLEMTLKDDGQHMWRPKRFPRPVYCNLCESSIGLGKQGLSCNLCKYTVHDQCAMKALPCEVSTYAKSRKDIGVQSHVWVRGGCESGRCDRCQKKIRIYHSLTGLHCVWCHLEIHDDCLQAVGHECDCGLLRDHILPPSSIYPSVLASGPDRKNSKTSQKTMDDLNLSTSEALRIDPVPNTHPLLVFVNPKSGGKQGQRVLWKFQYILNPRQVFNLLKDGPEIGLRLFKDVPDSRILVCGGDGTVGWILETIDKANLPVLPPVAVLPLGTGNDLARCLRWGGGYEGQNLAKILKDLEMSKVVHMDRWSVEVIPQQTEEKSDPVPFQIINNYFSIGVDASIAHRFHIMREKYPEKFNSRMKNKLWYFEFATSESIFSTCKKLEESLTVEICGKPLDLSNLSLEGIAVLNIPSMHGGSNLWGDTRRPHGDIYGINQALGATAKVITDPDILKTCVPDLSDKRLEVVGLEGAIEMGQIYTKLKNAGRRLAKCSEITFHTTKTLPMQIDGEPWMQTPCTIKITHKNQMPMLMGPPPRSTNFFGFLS
Method: as §1

Sequence of DGKz (Q13574 whole entry): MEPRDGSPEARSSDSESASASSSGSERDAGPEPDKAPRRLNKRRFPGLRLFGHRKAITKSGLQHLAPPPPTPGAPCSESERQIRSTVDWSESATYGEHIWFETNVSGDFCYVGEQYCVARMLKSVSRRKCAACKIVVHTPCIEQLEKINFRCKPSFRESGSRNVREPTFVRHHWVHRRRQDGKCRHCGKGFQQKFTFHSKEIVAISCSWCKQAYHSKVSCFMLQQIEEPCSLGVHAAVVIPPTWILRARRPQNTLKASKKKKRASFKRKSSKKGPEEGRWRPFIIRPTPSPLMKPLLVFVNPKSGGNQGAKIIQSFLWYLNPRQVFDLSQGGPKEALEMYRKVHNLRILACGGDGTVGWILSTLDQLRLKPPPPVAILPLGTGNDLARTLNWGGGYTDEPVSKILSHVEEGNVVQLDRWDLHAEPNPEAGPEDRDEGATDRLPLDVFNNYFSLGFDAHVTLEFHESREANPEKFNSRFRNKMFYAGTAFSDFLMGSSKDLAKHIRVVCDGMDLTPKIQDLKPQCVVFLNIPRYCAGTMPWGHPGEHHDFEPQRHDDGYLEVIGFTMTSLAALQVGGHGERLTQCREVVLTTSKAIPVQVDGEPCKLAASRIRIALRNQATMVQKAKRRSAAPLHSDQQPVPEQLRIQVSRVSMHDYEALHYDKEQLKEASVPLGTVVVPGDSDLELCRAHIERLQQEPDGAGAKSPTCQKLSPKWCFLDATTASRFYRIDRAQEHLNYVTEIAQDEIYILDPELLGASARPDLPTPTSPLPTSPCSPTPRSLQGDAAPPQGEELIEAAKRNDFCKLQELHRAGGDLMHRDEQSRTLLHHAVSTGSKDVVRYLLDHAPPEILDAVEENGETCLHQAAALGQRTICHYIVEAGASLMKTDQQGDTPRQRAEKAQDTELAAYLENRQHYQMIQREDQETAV

| IC50 (DGKz) [nM] | IC50 (DGKa) [nM] | SMILES |
| --- | --- | --- |
| 100 to 1000 | < 100 | CC[C@H]1CN(C(c2ccc(S(F)(F)(F)(F)F)cc2)C2CC2)[C@H](CC)CN1c1nc(=O)n(C)c2ccc(C#N)nc12 (single isomer, unassigned) [Compound 118] |
| > 1000 | < 100 | CC[C@@H]1CN(c2nc3nncn3c3ccc(C#N)nc23)[C@@H](CC)CN1C(=O)c1ccc(C(F)(F)F)cc1 [Compound 84] |
| < 100 | < 100 | Cn1c(=O)nc(N2CCC3(CC2)CC(c2ccc(OC(F)(F)F)cc2)=NO3)c2nc(C#N)ccc21 [Compound 31] |
| < 100 | < 100 | CC[C@H]1CN([C@H](CC)c2cccc(S(F)(F)(F)(F)F)c2)[C@H](CC)CN1c1nc(=O)n(C)c2ccc(C#N)nc12 (stereo in doubt) [Compound 55] |
| < 100 | < 100 | CC[C@H]1CN([C@@H](CC)c2ccc(C(F)(F)F)cc2)[C@H](CC)CN1c1nc2nncn2c2ccc(C#N)nc12 (single isomer, unassigned) [Compound 109] |
| < 100 | < 100 | CC[C@H]1CN([C@@H]2CCCCc3cc(C(F)(F)F)ccc32)[C@H](CC)CN1c1nc2nncn2c2ccc(C#N)nc12 [Compound 114] |
| 100 to 1000 | < 100 | CC[C@@H]1CN2c3c(c(=O)n(C)c4ccc(C#N)nc34)OC[C@@H]2CN1[C@H](CC)c1ccc(SC(F)(F)F)cc1 [Compound 124] |
| 100 to 1000 | < 100 | CC[C@H]1CN([C@H](CC)c2ccc(C(F)(F)F)nc2)[C@H](CC)CN1c1nc2nncn2c2ccc(C#N)nc12 (stereo in doubt) [Compound 112] |
| < 100 | < 100 | CC[C@H]1CN([C@H](CC)c2ccc(S(F)(F)(F)(F)F)cc2)[C@H](CC)CN1c1nc(=O)n(C)c2ccc(C#N)nc12 [Compound 29] |
| < 100 | < 100 | CC[C@@H]1CN(c2nc(=O)n(C)c3ccc(C#N)nc23)[C@@H](C)CN1[C@@H](c1ccc(F)cc1)c1ccc(SC(F)(F)F)cn1 [Compound 72] |
| 100 to 1000 | < 100 | CC[C@H]1CN([C@H](CC)c2ccc(OC(F)(F)F)cc2)[C@H](CC)CN1c1nc2nncn2c2ccc(C#N)nc12 (stereo in doubt) [Compound 101] |
| 100 to 1000 | < 100 | N#Cc1ccc2c(n1)c(N1CCC3(CC1)CC(c1ccc(SC(F)(F)F)cc1)=NO3)nc1nncn12 [Compound 54] |
| 100 to 1000 | < 100 | CC[C@H]1CN([C@@H](C)c2ccc(S(F)(F)(F)(F)F)cc2)[C@H](CC)CN1c1nc(=O)n(C)c2ccc(C#N)nc12 (stereo in doubt) [Compound 62] |
| < 100 | < 100 | CC[C@H]1CN([C@@H](C)c2ccc(S(F)(F)(F)(F)F)cc2)[C@H](CC)CN1c1nc2nncn2c2ccc(C#N)nc12 (stereo in doubt) [Compound 88] |
| 100 to 1000 | < 100 | CC[C@H]1CN([C@H](CC)c2ccc(C(F)(F)F)cc2)[C@H](CC)CN1c1nc2nncn2c2ccc(C#N)nc12 (single isomer, unassigned) [Compound 110] |
| 100 to 1000 | < 100 | CC[C@@H]1CN(c2nc3nncn3c3ccc(C#N)nc23)[C@@H](C)CN1[C@H](CC)c1ccc(SC(F)(F)F)cc1 (stereo in doubt) [Compound 71] |
| < 100 | < 100 | CC[C@H]1CN([C@@H](CC)c2ccc(OC(F)(F)F)cc2)[C@H](CC)CN1c1nc2nncn2c2ccc(C#N)nc12 (single isomer, unassigned) [Compound 100] |
| 100 to 1000 | < 100 | CC[C@H]1CN([C@@H](CC)c2ccc(SC(F)(F)F)cc2)[C@H](CC)CN1c1nc2nncn2c2ccc(C#N)nc12 (single isomer, unassigned) [Compound 68] |
| 100 to 1000 | < 100 | CC[C@H]1CN([C@H](CC)c2ccc(C(F)(F)F)cc2)[C@H](CC)CN1c1nc2nncn2c2ccc(C#N)nc12 (single isomer, unassigned) [Compound 35] |

| SMILES | IC50 (DGKz) [nM] | IC50 (DGKa) [nM] |
| --- | --- | --- |
| Cc1ccc2oc(C3CCN(c4nc(=O)n(C)c5ccc(C#N)nc45)CC3)nc2c1 [Compound 20] | > 1000 | > 1000 |
